The results in this text go back to PMC13072876 (International Journal of Molecular Sciences, 2026).

Usually solubility stands for the concentration that dissolves in the medium under given conditions. A low value points to little dissolved substance.

The data set can be described thus: Water solubility, experimental. In kind it is physicochemical. An excerpt: Table 5 Water solubility of tested compounds experimental [mg/mL] and predicted by the SwissADME web tool. | column: Water Solubility / [mg/mL]

Each structure is given as a SMILES string. ≈ marks a conversion by molar mass, not a printed value.

In turn, `COc1cc2c(c(OC)c1OC)-c1ccc(OC)c(=O)cc1[C@@H](NC(C)=O)CC2` [compound 1, colchicine] came in with a Water solubility experimental (experimental) of 45 mg/mL.

The molecule `COc1cccc2c1C(=O)c1c(O)c3c(c(O)c1C2=O)C[C@@](O)(C(=O)CO)C[C@@H]3O[C@H]1C[C@H](N)[C@H](O)[C@H](C)O1` [doxorubicin] gave a solubility (water) of 50 mg/mL (≈ 92 mM).
